Where two headings read alike, the source gives them in different places.
Legend:
SARS-CoV-2 [1] = format: cell-based; conditions: Calu-3 cells; for Suppression of viral infection relative to DMSO control, initial screen: 0.5 μM for 1, 1 μM for the others, 48 h, Figure 3; for Suppression of viral infection, follow-up experiment: Figure 4
[2] = test system: primary human airway cells; conditions: air-liquid interface, 48 h, Figure 5B
SARS-CoV-2 [3] = conditions: air-liquid interface culture, test concentration 10 μM, 48 h
HIV-1 strain 96USHIPS7 = conditions: read-out: IC50 against HIV-1 strain 96USHIPS7; cited from earlier work
HIV-1 strain UG/92/029 = conditions: read-out: IC50 against HIV-1 strain UG/92/029; cited from earlier work
Plasmodium falciparum = conditions: human malarial parasite Plasmodium falciparum; cited from earlier work
[4] = cited from earlier work
[5] = test system: influenza A virus subtype H1N1; conditions: cited from earlier work
SARS-CoV-2 [6] = conditions: cited from earlier work

CC(=O)C[C@]1(O)c2ccccc2-[n+]2ccc3c([nH]c4ccccc43)c21.O=C([O-])C(F)(F)F [Compound 1, homofascaplysin A]
Suppression of viral infection relative to DMSO control, initial screen (SARS-CoV-2 [1]): significantly suppressed viral infection | Suppression of viral infection, follow-up experiment (SARS-CoV-2 [1]; 2.8 μM): significant suppression of viral infection | Effect on adenoviral transduction (toxicity control) [2]: did not affect adenoviral transduction

C[C@H]1CC[C@H]2C(C)(C)CCC[C@]23Oc2ccc(O)cc2C[C@]13C [Compound 2, (+)-aureol]
Suppression of viral infection relative to DMSO control, initial screen (SARS-CoV-2 [1]): significantly suppressed viral infection | Suppression of viral infection, follow-up experiment (SARS-CoV-2 [1]; 10 μM): significant suppression of viral infection | Effect on SARS-CoV-2 replication in primary human airway cells (SARS-CoV-2 [3]): ineffective

CC1=C2Cc3cc(ccc3O)C(=O)O[C@H](C(C)(C)Br)CC[C@](C)(O)[C@H](Br)CC[C@]2(C)[C@@H](Br)CC1 [Compound 3, bromophycolide A]
Suppression of viral infection relative to DMSO control, initial screen (SARS-CoV-2 [1]): significantly suppressed viral infection | Suppression of viral infection, follow-up experiment (SARS-CoV-2 [1]; 10 μM): significant suppression of viral infection | IC50 (HIV-1 strain 96USHIPS7): 9.8 µM | IC50 (HIV-1 strain UG/92/029): 9.1 µM | Blood stage antimalarial activity (Plasmodium falciparum): sub-micromolar | Toxicity in vivo ([4]; malaria mouse model): low toxicity | Bioavailability in vivo ([4]; mouse, in vivo): reasonable bioavailability | In vivo half-life ([4]; mouse, in vivo): short in vivo half-life | Liver metabolism ([4]; mouse, in vivo): rapid liver metabolism | Effect on SARS-CoV-2 replication in primary human airway cells (SARS-CoV-2 [3]): ineffective

CC(C)=CCC[C@@H](C)[C@H]1CC[C@@]2(C(=O)O)C3=C(CC[C@]12C)[C@@]1(C)CC[C@H](O[C@@H]2OC[C@H](O)[C@H](O[C@@H]4OC[C@H](O)[C@H](O[C@@H]5O[C@H](CO)[C@H](O)[C@H](O)[C@H]5O)[C@H]4O)[C@H]2O[C@@H]2O[C@H](CO)[C@H](O)[C@H](O)[C@H]2O)C(C)(C)C1CC3 (stereo partly shown) [Compound 13, formoside]
Reduction of SARS-CoV-2 infection in a subsequent experiment (SARS-CoV-2 [1]; data not shown): not replicated

C[C@H]1CC[C@H]2C(C)(C)[C@@H](O)CC[C@]23Oc2c(c(O)cc4c2CNC4=O)C[C@]13C [Compound 16, stachyflin]
Activity against influenza A virus subtype H1N1 [5]: nanomolar activity

plitidepsin [Compound 4]
Potency against SARS-CoV-2 relative to remdesivir (SARS-CoV-2 [6]): more than 20 times

Reference: article PMC8936055 (Journal of natural products, 2022)
